What all share (assay type): cell-based
For one assay, the system named is Target C CJ mRNA. Briefly: Gene panel canonical junction qPCR assay, Target C. The note with it: larger gene panel; concentration having 50% response in CJ decrease; read-out: Target C IC50 (decrease in CJ mRNA levels). As to the method:
(§1) Compounds described herein were used to modulate RNA transcript abundance in cells. The expression of a target mRNA was measured by detecting the formation of an exon-exon junction in the canonical transcript (CJ). A compound mediated exon-inclusion event was detected by observing an increase in formation of a new junction with an alternative exon (AJ). Real-time qPCR assays were used to detect these splicing switches and interrogate the potency of various compounds towards different target genes. A high-throughput real time quantitative PCR (RT-qPCR) assay was developed to measure these two isoforms of the mRNA (CJ and AJ) for an exemplary gene, HTT, together with a control housekeeping gene, GAPDH or GUSB or PPIA, used for normalization. Briefly, the A673 or K562 cell line was treated with various compounds described herein (e.g., compounds of Formula (I)). After treatment, the levels of the HTT mRNA targets were determined from each sample of cell lysate by cDNA synthesis followed by qPCR.
(§2) The data analysis was performed by first determining the ΔCt vs the housekeeper gene. This ΔCt was then normalized against the DMSO control (ΔΔCt) and converted to RQ (relative quantification) using the 2^(−ΔΔCt) equation. The RQ were then converted to a percentage response by arbitrarily setting an assay window of 3.5 ΔCt for HTT-CJ and an assay window of 9 ΔCt for HTT-AJ. […] The percentage response was then fitted to the 4 parametric logistic equation to evaluate the concentration dependence of compound treatment. The increase in AJ mRNA is reported as AC50 (compound concentration having 50% response in AJ increase) while the decrease in CJ mRNA levels is reported as IC50 (compound concentration having 50% response in CJ decrease).
(§3) Additional studies were carried out for a larger panel of genes using the protocol provided above. The junction between flanking upstream and downstream exons was used to design canonical junction qPCR assays. At least one of the forward primer, reverse primer or the CY5-labeled 5′ nuclease probe (with 3′ quencher such as ZEN/Iowa Black FQ) was designed to overlap with the exon junction to capture the CJ mRNA transcript. BLAST was used to confirm the specificity of the probeset and parameters such as melting temperature, GC content, amplicon size, and primer dimer formation are considered during their design. Data for the decrease in CJ mRNA levels for three exemplary genes (HTT, SMN2, and Target C) analyzed in this panel are reported as IC50 (compound concentration having 50% response in CJ decrease).

The subject of assay [1] is HTT mRNA canonical junction (CJ). Briefly: RT-qPCR splicing assay, HTT canonical junction (CJ) mRNA decrease. The note with it: A673 or K562 cell line, 24 hours treatment; concentration having 50% response in CJ mRNA decrease. As for the experimental part: as §1
(§4) The A673 cell line was cultured in DMEM with 10% FBS. Cells were diluted with full growth media and plated in a 96-well plate (15,000 cells in 100 ul media per well). The plate was incubated at 37° C. with 5% CO2 for 24 hours to allow cells to adhere. An 11-point 3-fold serial dilution of the compounds was made in DMSO then diluted in media in an intermediate plate. Compounds were transferred from the intermediate plate to the cell plate with the top dose at a final concentration of 10 uM in the well. Final DMSO concentration was kept at or below 0.25%. The cell plate was returned to the incubator at 37° C. with 5% CO2 for an additional 24 hours.
(§5) The K562 cell line was cultured in IMDM with 10% FBS. For K562, cells were diluted with full growth media and plated in either a 96-well plate (50,000 cells in 50 uL media per well) or a 384-well plate (8,000-40,000 cells in 45 uL media per well). An 11-point 3-fold serial dilution of the compounds were made in DMSO then diluted in media in an intermediate plate. Compound was transferred from the intermediate plate to the cell plate with the top dose at a final concentration of 10 uM in the well. Final DMSO concentration was kept at or below 0.25%. Final volume was 100 uL for 96-well plate and 50 uL for 384-well plate. The cell plate was then placed in an incubator at 37° C. with 5% CO2 for 24 hours.
(§6) The cells were then gently washed with 50 uL-100 uL cold PBS before proceeding to addition of lysis buffer. 30 uL-50 uL of room temperature lysis buffer with DNAse I (and optionally RNAsin) was added to each well. Cells were shaken/mixed thoroughly at room temperature for 5-10 minutes for lysis to take place and then 3 uL-5 uL of room temperature stop solution was added and wells were shaken/mixed again. After 2-5 minutes, the cell lysate plate was transferred to ice for RT-qPCR reaction setup. The lysates could also be frozen at −80° C. for later use.
(§7) In some cases, a direct lysis buffer was used. An appropriate volume of 3×lysis buffer (10 mM Tris, 150 mM NaCl, 1.5%-2.5% Igepal and 0.1-1 U/uL RNAsin, pH 7.4) was directly added to either K562 or A673 cells in media and mixed by pipetting 3 times. The plates were then incubated at room temperature with shaking/rocking for 20-50 minutes to allow for lysis to take place. After this time, the cell lysate plate was transferred to ice to set up for the RT-qPCR reactions. The lysates could also be frozen at −80° C. for later use.
(§8) To set up 10 uL RT-qPCR reactions, cell lysates were transferred to 384-well qPCR plates containing the master mix according to the table below. The plates were sealed, gently vortexed, and spun down before the run. The volumes were adjusted accordingly in some instances where the reaction was carried in 20 uL. The table below summarizes the components of the RT-qPCR reactions:
(§9) The RT-qPCR reaction was performed using a QuantStudio (ThermoFisher) under the following fast cycling conditions. […]

The subject of assay [2] is HTT mRNA alternative junction (AJ). Briefly: RT-qPCR splicing assay, HTT alternative junction (AJ) mRNA increase. The conditions noted are these: A673 or K562 cell line, 24 hours treatment; concentration having 50% response in AJ mRNA increase. As to the method: as §1, §4, §5, §6, §7, §8, §9
A further assay concerns HTT CJ mRNA. Briefly: Gene panel canonical junction qPCR assay, HTT. The conditions noted are these: larger gene panel; concentration having 50% response in CJ decrease; read-out: HTT IC50 (decrease in CJ mRNA levels). As to the method:
as §1, §2, §3

A further assay concerns SMN2 CJ mRNA. Briefly: Gene panel canonical junction qPCR assay, SMN2. The conditions noted are these: larger gene panel; concentration having 50% response in CJ decrease; read-out: SMN2 IC50 (decrease in CJ mRNA levels). As for the experimental part:
as §1, §2, §3

In the case of `COc1cc(N2CCNCC2)c2cccc(-c3cc(C)c4nc(C)cn4n3)c2n1` [Compound 134, 8-[2,8-dimethylimidazo[1,2-b]pyridazin-6-yl]-2-methoxy-4-(piperazin-1-yl) quinoline], the IC50 in the assay with Target C CJ mRNA is 1 to 10 µM. Also, the AC50 in assay [1] and in assay [2] was 1 to 10 µM throughout.
For the molecule `Cc1cn2cc(NC(=O)c3cccc4c(N(C)C5CCN(C)CC5)cnnc34)cc(F)c2n1` [Compound 213], the IC50 with Target C CJ mRNA, in the assay with HTT CJ mRNA and with SMN2 CJ mRNA was 1 to 10 µM in each case. The AC50 in assay [1] and in assay [2] was 1 to 10 µM each time.
On to `Cc1cn2nc(NC(=O)c3cccc4c(C5CCNCC5)cnnc34)cc(C)c2n1` [Compound 112, N-[2,8-dimethylimidazo[1,2-b]pyridazin-6-yl]-4-(piperidin-4-yl)cinnoline-8-carboxamide], for which the IC50 in the assay with Target C CJ mRNA was in the range of 1 to 10 µM. The AC50 in assay [1] and in assay [2] was greater than 10 µM throughout.
For `c1cc(-c2cn[nH]c2)c2cnnc(N3CCNCC3)c2c1` [Compound 102, 1-(piperazin-1-yl)-5-(1H-pyrazol-4-yl)phthalazine], the IC50 in the assay on HTT CJ mRNA and in the assay on SMN2 CJ mRNA was greater than 10 µM each time. Besides, the AC50 in assay [1] and in assay [2] was greater than 10 µM in each case.
With `Cc1cn2cc(NC(=O)c3cccc4c(N5CCNCC5)cnnc34)cc(F)c2n1` [Compound 113, N-[8-fluoro-2-methylimidazo[1,2-a]pyridin-6-yl]-4-(piperazin-1-yl)cinnoline-8-carboxamide], the IC50 is less than 0.1 µM in the assay with Target C CJ mRNA, greater than 10 µM in the assay with HTT CJ mRNA and less than 0.1 µM in the assay with SMN2 CJ mRNA. Also, the AC50 in assay [1] was greater than 10 µM; in assay [2], 1 to 10 µM.
In the case of `Cc1cn2cc(-c3cccc4c(N5CCNCC5)nncc34)nc2c(C)n1` [Compound 100, 5-[6,8-dimethylimidazo[1,2-a]pyrazin-2-yl]-1-(piperazin-1-yl)phthalazine], the AC50 in assay [1] and in assay [2] was greater than 10 µM in each case.
For the molecule `Cc1cn2nc(-c3cccc4c(N5CCNCC5)nncc34)cc(C)c2n1` [Compound 101, 5-[2,8-dimethylimidazo[1,2-b]pyridazin-6-yl]-1-(piperazin-1-yl)phthalazine], in the assay with Target C CJ mRNA, the concentration for half-maximal inhibition (IC50) was in the range of 1 to 10 µM. For the same molecule, the AC50 is greater than 10 µM in assay [1] and 1 to 10 µM in assay [2].
Take `Cc1cn2nc(-c3cccc4c3CCC(=O)N4C3CCNCC3)cc(C)c2n1` [Compound 185]: the IC50 in the assay on HTT CJ mRNA was 1 to 10 µM; in the assay on SMN2 CJ mRNA, greater than 10 µM. Besides, the values for the AC50 in assay [1] and in assay [2] were 1 to 10 µM and greater than 10 µM, respectively.
In the case of `Cc1cn2cc(NC(=O)c3cccc4c(N(C)C5CC(C)(C)NC(C)(C)C5)cnnc34)cc(F)c2n1` [Compound 184, N-[8-fluoro-2-methylimidazo[1,2-a]pyridin-6-yl]-4-[methyl(2,2,6,6-tetramethylpiperidin-4-yl)amino]cinnoline-8-carboxamide], the IC50 in the assay on Target C CJ mRNA, with HTT CJ mRNA and in the assay on SMN2 CJ mRNA was 1 to 10 µM throughout. The half-maximal activity concentration (AC50) in assay [1] and in assay [2] was 1 to 10 µM throughout.
Regarding `COc1cc(N2CCNCC2)c2cccc(-c3cc(F)c4nc(C)cn4c3)c2n1` [Compound 138, 8-[8-fluoro-2-methylimidazo[1,2-a]pyridin-6-yl]-2-methoxy-4-(piperazin-1-yl) quinoline], the IC50 with Target C CJ mRNA is greater than 10 µM; in the assay with HTT CJ mRNA it was greater than 10 µM; in the assay on SMN2 CJ mRNA, 0.1 to 1 µM. The AC50 in assay [1] and in assay [2] was greater than 10 µM each time.
Regarding `Cc1cn2cc(-c3cccc4c(C5=CCNCC5)nncc34)nc2c(C)n1` [Compound 109, 5-[6,8-dimethylimidazo[1,2-a]pyrazin-2-yl]-1-(1,2,3,6-tetrahydropyridin-4-yl)phthalazine], in the assay on Target C CJ mRNA, the IC50 fell in the range of 1 to 10 µM. Besides, the AC50 in assay [1] and in assay [2] was greater than 10 µM in each case.
As to `Cc1cn2cc(-c3cccc4c(N5CCCCC5)nncc34)nc2c(C)n1` [Compound 108, 5-[6,8-dimethylimidazo[1,2-a]pyrazin-2-yl]-1-(piperidin-1-yl)phthalazine], in the assay with Target C CJ mRNA, the IC50 is 1 to 10 µM. For the same molecule, the AC50 in assay [1] and in assay [2] was greater than 10 µM in each case.
Turning to `Cc1cn2nc(-c3cccc4c(C5CCNCC5)nncc34)cc(C)c2n1` [Compound 104, 5-[2,8-dimethylimidazo[1,2-b]pyridazin-6-yl]-1-(piperidin-4-yl)phthalazine], the AC50 in assay [2] was greater than 10 µM.
As to `Cc1cn2nc(NC(=O)c3cccc4c(N5CCNCC5)cnnc34)cc(C)c2n1` [Compound 111, N-[2,8-dimethylimidazo[1,2-b]pyridazin-6-yl]-4-(piperazin-1-yl)cinnoline-8-carboxamide], the AC50 in assay [1] and in assay [2] was greater than 10 µM throughout.
On to `Cc1cn2cc(NC(=O)c3cccc4c(C5CCNCC5)cnnc34)cc(F)c2n1` [Compound 114, N-[8-fluoro-2-methylimidazo[1,2-a]pyridin-6-yl]-4-(piperidin-4-yl)cinnoline-8-carboxamide], for which the AC50 in assay [1] and in assay [2] was greater than 10 µM throughout.
Turning to `Cc1cn2cc(NC(=O)c3cccc4c(N5CCC(NC(C)(C)C)C5)cnnc34)cc(F)c2n1` (stereo not shown) [Compound 122, 4-[3-(tert-butylamino)pyrrolidin-1-yl]-N-[8-fluoro-2-methylimidazo[1,2-a]pyridin-6-yl]cinnoline-8-carboxamide], the AC50 in assay [1] and in assay [2] was greater than 10 µM each time.
